Laboratory results published in PubChem BioAssay (NCI).
Where “and” joins values, the source holds several entries; their conditions need not be identical. Equal values may be shown once.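 Dose response: 5 concentrations. Exposure: 48 h. Format: 96-well plates. Endpoint: linear interpolation; highest concentration if not reached. The concentration for 50% growth inhibition is given as GI50. At the TGI there is no net growth.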

Assays:
Test in all cases: NCI tumour cell line growth inhibition, 48 h
[1] = system: 786-0 renal
[2] = system: ACHN renal
[3] = system: IGROV1 ovarian
[4] = system: MCF7 breast
[5] = system: NCI-H226 lung
[6] = system: NCI-H460 lung
[7] = system: NCI-H522 lung
[8] = system: OVCAR-8 ovarian
[9] = system: SW-620 colon
[10] = system: TK-10 renal
[11] = system: HCC-2998 colon
[12] = system: T-47D breast

| SMILES | TGI [1] [µM] | TGI [2] [µM] | TGI [3] [µM] | TGI [4] [µM] | TGI [5] [µM] | TGI [6] [µM] | TGI [7] [µM] | TGI [8] [µM] | TGI [9] [µM] | TGI [10] [µM] | TGI [11] [µM] | TGI [12] [µM] | GI50 [11] [µM] | GI50 [3] [µM] | GI50 [4] [µM] | GI50 [5] [µM] | GI50 [6] | GI50 [7] | GI50 [8] [µM] | GI50 [9] [µM] |
| --- | --- | --- | --- | --- | --- | --- | --- | --- | --- | --- | --- | --- | --- | --- | --- | --- | --- | --- | --- | --- |
| COc1ccc(NC2Oc3cc4c(cc3C(c3cc(OC)c(OC)c(OC)c3)C2C)OCO4)cc1 (stereo not drawn) | > 81.1 | > 38.5 | > 100 | > 41.3 | 5.58 | > 48.5 | 2.45 | > 45.4 | > 100 | > 82.8 | – | – | – | – | – | – | – | – | – | – |
| O=C(OCc1ccccc1)OOC(=O)OCc1ccccc1 | – | > 100 | > 100 | – | – | > 100 | > 100 | – | > 100 | – | > 100 | – | – | – | – | – | – | – | – | – |
| OCc1ccccc1C1CSCSC1 | – | > 100 | – | – | > 100 | > 100 | > 100 | > 100 | > 100 | > 100 | – | – | – | – | – | – | – | – | – | – |
| CCN(CCCN(CC)C(=O)N[C@@H](Cc1ccccc1)C(=O)NC)C(=O)N[C@@H](Cc1ccccc1)C(=O)NC | > 100 | > 100 | – | – | > 100 | > 100 | > 100 | > 100 | > 100 | > 100 | > 100 | > 100 | – | – | – | – | – | – | – | – |
| CCOP(=O)(OCC)/C(F)=C/c1ccccc1 | > 100 | > 100 | > 100 | > 100 | – | > 100 | > 100 | > 100 | > 100 | > 100 | > 100 | > 100 | – | – | – | – | – | – | – | – |
| c1ccc(N=c2snc(-c3ccccc3)s2)cc1 | > 100 | > 100 | > 100 | – | > 100 | > 100 | > 100 | > 100 | > 100 | > 100 | > 100 | – | – | – | – | – | – | – | – | – |
| O=C(/C=C/c1cccs1)c1ccc(Cl)cc1 | > 100 | > 100 | > 100 | > 100 | > 100 | > 100 | – | > 100 | 92.9 | > 100 | > 100 | > 100 | – | – | – | – | – | – | – | – |
| O=C(O)c1ccc(NS(=O)(=O)Cc2ccccc2)cc1 | > 100 | > 100 | > 100 | > 100 | – | > 100 | > 100 | > 100 | > 100 | > 100 | > 100 | > 100 | – | – | – | – | – | – | – | – |
| CN(C)c1ccc(/C(Br)=C2\OC(=O)c3ccccc32)cc1 | > 100 | > 100 | > 100 | > 100 | > 100 | > 100 | – | > 100 | > 100 | > 100 | > 100 | > 100 | – | – | – | – | – | – | – | – |
| CC(=O)Nc1ccc(Cl)c(Cl)c1 | > 100 | > 100 | > 100 | – | > 100 | > 100 | > 100 | > 100 | > 100 | > 100 | > 100 | – | – | – | – | – | – | – | – | – |
| Cc1nc2ccc([N+](=O)[O-])cc2c(=O)n1C(=S)Nc1cccc(Cl)c1 | 78 | 48.2 | – | 49.5 | 44 | 52.6 | – | – | 53.3 | 67.5 | 26 | 69.6 | – | – | – | – | – | – | – | – |
| CCOC(=O)C1CC(O)C(=O)N1C (stereo not drawn) | > 100 | > 100 | > 100 | > 100 | > 100 | – | – | – | – | > 100 | > 100 | > 100 | – | – | – | – | – | – | – | – |
| Cc1cc2cccc(Cl)c2nc1C(=O)c1ccccc1 | – | > 100 | > 100 | – | > 100 | – | > 100 | > 100 | > 100 | > 100 | > 100 | – | – | – | – | – | – | – | – | – |
| COc1ccc(CNc2nc3ccc(C(F)(F)F)cc3nc2-c2ccccc2)cc1OC | – | > 100 | – | – | > 100 | > 100 | – | > 100 | > 100 | > 100 | > 100 | – | – | – | – | – | – | – | – | – |
| CC(=O)CC(=O)c1cc2c(=O)oc(C)cc2oc1=O | > 37.5 | > 37.5 | > 37.5 | > 37.5 | > 37.5 | > 37.5 | > 37.5 | > 37.5 | > 37.5 | > 37.5 | > 37.5 | – | – | – | – | – | – | – | – | – |
| CO/N=C1/c2sccc2[C@H](NC(=O)CNC(=O)OC(C)(C)C)[C@@H]1O | – | – | > 100 | > 100 | > 100 | > 100 | – | > 100 | > 100 | > 100 | > 100 | > 100 | – | – | – | – | – | – | – | – |

| SMILES | TGI [1] [µM] | TGI [2] [µM] | TGI [3] [µM] | TGI [4] [µM] | TGI [5] [µM] | TGI [6] [µM] | TGI [7] [µM] | TGI [8] [µM] | TGI [9] [µM] | TGI [10] [µM] | TGI [11] [µM] | TGI [12] [µM] | GI50 [11] [µM] | GI50 [3] [µM] | GI50 [4] [µM] | GI50 [5] [µM] | GI50 [6] | GI50 [7] | GI50 [8] [µM] | GI50 [9] [µM] |
| --- | --- | --- | --- | --- | --- | --- | --- | --- | --- | --- | --- | --- | --- | --- | --- | --- | --- | --- | --- | --- |
| O=C(CCc1ccc(O)cc1)c1c(O)cc(O)cc1OC1OC(CO)C(O)C(O)C1O (stereo not drawn) | > 100 | > 100 | > 100 | – | – | – | – | – | > 100 | > 100 | > 100 | > 100 | – | – | – | – | – | – | – | – |
| COc1cccc(C2c3cc4c(cc3OC(N3CCCC3)C2C)OCO4)c1OC (stereo not drawn) | 18.8 | 16.8 | 16.6 | > 100 | – | 12.5 | 25.5 | 39.8 | 18.8 | > 100 | – | 39.3 | – | – | – | – | – | – | – | – |
| NCCCC(N)C(=O)O (stereo not drawn) | > 100 | > 100 | > 100 | > 100 | > 100 | > 100 | > 100 | > 100 | > 100 | > 100 | – | > 100 | – | – | – | – | – | – | – | – |
| CC(C)=CC1C(C(=O)O)C1(C)C (stereo not drawn) | – | – | > 750 | > 750 | > 750 | > 750 | > 750 | > 750 | > 750 | – | > 750 | – | – | – | – | – | – | – | – | – |
| O=C1NC(=S)NC(=O)C1C(c1ccccc1[N+](=O)[O-])C1C(=O)NC(=S)NC1=O | > 100 | > 100 | – | > 100 | > 100 | > 100 | > 100 | > 100 | > 100 | > 100 | – | > 100 | – | – | – | – | – | – | – | – |
| COc1cccc(-c2nc(-c3cnccn3)n(Cc3ccccc3)n2)c1 | > 100 | – | > 100 | > 100 | – | > 100 | > 100 | > 100 | > 100 | > 100 | > 100 | > 100 | – | – | – | – | – | – | – | – |
| COc1cc([C@@H]2c3cc4c(cc3C[C@H]3COC(=O)[C@@H]32)OCO4)cc(OC)c1OC | – | – | > 50 | 2.03 | 0.891 | < 0.005 | 0.00689 | 0.324 | > 50 | – | 1.01 | – | 0.00446 | 0.00618 | 0.00506 | 0.00524 | 0.00327 µM and < 0.005 µM | 0.003 µM and 0.00924 µM | 0.00407 | 0.00336 |
| O=C1C(C=NCCc2c[nH]c3ccccc23)C(C(F)(F)F)=NN1c1nc2ccccc2s1 (stereo not drawn) | > 100 | 83.5 | > 100 | 57.2 | 68 | 62.4 | 43.6 | > 100 | > 100 | 62.1 | – | 25.5 | – | – | – | – | – | – | – | – |
| C[C@]12CC/C(=N\O)C=C1CC[C@@H]1[C@@H]2CC[C@]2(C)C(=N/O)/C(=C/c3cccnc3)C[C@@H]12 | > 100 | 73.4 | > 100 | 29.2 | 18.1 | 22.7 | 45.2 | 80.3 | > 100 | 59.3 | – | – | – | – | – | – | – | – | – | – |
| Cc1cc(O)cc(O)c1N=Nc1ccc([N+](=O)[O-])cc1 | – | 94.9 | 66.3 | > 100 | – | 61 | 14.5 | > 100 | > 100 | > 100 | 49 | > 100 | – | – | – | – | – | – | – | – |
| COC(c1ccc(C(C)(C)C)cc1)(c1ccc(C(C)(C)C)cc1)c1cc(C(O)(c2cc(C(OC)(c3ccc(C(C)(C)C)cc3)c3ccc(C(C)(C)C)cc3)c(C)cc2C)c2cc(C(OC)(c3ccc(C(C)(C)C)cc3)c3ccc(C(C)(C)C)cc3)c(C)cc2C)c(C)cc1C | – | – | > 100 | > 100 | > 100 | > 100 | – | > 100 | > 100 | > 100 | > 100 | > 100 | – | – | – | – | – | – | – | – |
| C[C@@H]1C[C@H](O)[C@]2(O)O[C@@H]3C[C@@]4(C=O)[C@@H](CC=C5[C@@H]4CC[C@]4(C)[C@@H](C6=CC(=O)OC6)CC[C@]54O)C[C@H]3O[C@@H]2O1 | – | 0.0821 | – | – | 0.233 | 0.0711 | 0.0468 | 0.22 | 1.87 | 0.186 | 0.285 | 0.325 | – | – | – | – | – | – | – | – |
| O=C1N[C@@H]2c3c(csc3Br)C(=O)[C@@H]2O1 | > 100 | > 100 | > 100 | > 100 | – | > 100 | 68.3 | 57.6 | 50.5 | 80.3 | 39.1 | 99 | – | – | – | – | – | – | – | – |
| C=CCCCC12CCCc3cccc(c31)NC2=O (stereo not drawn) | – | 86.4 | 33.8 | – | 40.3 | 33.8 | 31.3 | – | 41.8 | 42.4 | 30.8 | – | – | – | – | – | – | – | – | – |
| COC1C=CC23c4cc5c(cc4C(O)OC2CN(C)C3C1)OCO5 (stereo not drawn) | 11 | 10.1 | 22.3 | – | 5.36 | 56.7 | 7 | 9.2 | 11.6 | – | 5.71 | – | – | – | – | – | – | – | – | – |
| CCOC(=O)C(=O)N1C(C)=C(C(=O)OCC)CC(C(=O)OCC)=C1C | > 100 | > 100 | > 100 | > 100 | – | > 100 | > 100 | – | > 100 | > 100 | > 100 | > 100 | – | – | – | – | – | – | – | – |
